Experiments:
Human dermal fibroblasts [1] = assay: Restoration of cell activity decreased by UV irradiation (Example 3); format: cell-based; details: cells pre-irradiated 400 mJ/cm^2 without substance, then UV 0-200 mJ/cm^2 through 0.4% or 2% C-phycocyanin
Protocol: (§1) A cell sample was prepared as follows: • 1. Human dermal fibroblasts and human skin keratinocytes purchased from Kurabo Industries Ltd. were used. A cell suspension (1 mL) stored in liquid nitrogen was thawed in a water bath (37° C.) to an extent that small ice pellets remained, and then diluted with 9 mL of warm medium. • 2. The diluted suspension was mixed gently and then transferred to a T75 flask and incubated overnight at 37° C. • 3. The next day, the medium was replaced with 10 mL of fresh medium. • 4. The medium was replaced periodically (once every 2 days for fibroblasts and once every 2 to 3 days for keratinocytes) and cell proliferation was continued. Meanwhile, the cells were observed using a microscope, and it was confirmed that the cells grew in the correct form. • 5. After the cells reached about 80% confluence, the cells were passaged. The cells were passaged by washing the cells once with 10 mL of warm PBS, adding 5 mL of warm trypsin to a T75 flask, covering the bottom of the flask with a trypsin solution, followed by aspirating at room temperature for 1 minute. • 6. The flask was allowed to stand in an oven at 37° C. for (maximum) 2 minutes for fibroblasts and (maximum) 7 minutes for keratinocytes. The cells were observed using a microscope and confirmed to be small and oval. • 7. Thereafter, the side of the T75 flask was lightly tapped to release the cells. […]

Human dermal fibroblasts [2] = assay: Influence of C-phycocyanin concentration and UV intensity on cell activity (Example 2); format: cell-based; details: UV 0-100 mJ/cm^2
Protocol: as §1

Substance: C-phycocyanin
- cell activity (relative fluorescence intensity, AlamarBlue) (Human dermal fibroblasts [1]): cell activity was recovered
- cell activity (relative fluorescence intensity, AlamarBlue) (Human dermal fibroblasts [2]; 0.4% C-phycocyanin solution plate): the decrease in cell activity was inhibited
- cell activity (relative fluorescence intensity, AlamarBlue) (Human dermal fibroblasts [2]; 2% C-phycocyanin solution plate, compared to no UV irradiation): the cell activity was even enhanced

— patent publication US12551418B2, “Cosmetic containing ultraviolet wavelength converting substance and medicinal agent” (Shiseido Company, Ltd., priority 2019, dated 2026)
